Measurements reported in PubChem BioAssay AID330 (DTP/NCI, 2004).
Toxic doses and inconclusive results are not listed. Rule for the calls: active = survival T/C of 150% or more; inactive = T/C below 125% in these data.

Test system: P388 leukemia ip, CD2F1 mice, survival T/C
Assay: NCI In Vivo Anticancer Drug Screen. Data for tumor model P388 Leukemia (intraperitoneal) in CD2F1 (CDF1) mice
Settings: endpoint: median survival time, higher = longer survival
How it was run: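 Mice carrying the transplanted tumor received test compound or vehicle. Survival was recorded in each group, and the value is the treated-group measurement divided by that of the vehicle-treated control group.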

[1] = dose: 60.0 mg/kg/injection, schedule: Q01DX005 (ip), vehicle: saline with Tween-80
[2] = dose: 120.0 mg/kg/injection, schedule: Q01DX005 (ip), vehicle: saline with Tween-80
[3] = dose: 50.0 mg/kg/injection, schedule: Q01DX009 (ip), vehicle: saline with Tween-80
[4] = dose: 100.0 mg/kg/injection, schedule: Q01DX009 (ip), vehicle: saline with Tween-80
[5] = dose: 200.0 mg/kg/injection, schedule: Q01DX009 (ip), vehicle: saline with Tween-80

Measured: T/C

CN(C)CN1CSC(=S)N(CN(C)C)C1
inactive: dose: 50.0 mg/kg/injection, schedule: Q01DX005 (ip), vehicle: distilled water + alcohol 103 % of control | dose: 100.0 mg/kg/injection, schedule: Q01DX005 (ip), vehicle: distilled water + alcohol 116 % of control | dose: 200.0 mg/kg/injection, schedule: Q01DX005 (ip), vehicle: distilled water + alcohol 103 % of control

O=[N+]([O-])c1ccc(S(=O)(=O)Nc2ccc(-c3ccccc3)cc2)cc1
inactive: dose: 100.0 mg/kg/injection, schedule: Q01DX009 (ip), vehicle: other 105 % of control | dose: 200.0 mg/kg/injection, schedule: Q01DX009 (ip), vehicle: other 100 % of control | dose: 400.0 mg/kg/injection, schedule: Q01DX009 (ip), vehicle: other 100 % of control

O=S(=O)(O)c1cc(O)c2c(N=Cc3ccccc3O)c(S(=O)(=O)O)ccc2c1
inactive: [1] 98 % of control | [2] 97 % of control | dose: 240.0 mg/kg/injection, schedule: Q01DX005 (ip), vehicle: saline with Tween-80 95 % of control

COc1cc(/C=C2\N=C(c3cc(OC)c(OC)c(OC)c3)OC2=O)ccc1O
inactive: [3] 91 % of control | [4] 95 % of control | [5] 105 % of control

CC1OC(C)(C)OC1C(=O)O (stereo not drawn)
inactive: dose: 3.13 mg/kg/injection, schedule: Q01DX009 (ip), vehicle: Klucel (hydroxypropylcellulose) (HPC) 89 % of control | dose: 6.25 mg/kg/injection, schedule: Q01DX009 (ip), vehicle: Klucel (hydroxypropylcellulose) (HPC) 95 % of control | dose: 12.5 mg/kg/injection, schedule: Q01DX009 (ip), vehicle: Klucel (hydroxypropylcellulose) (HPC) 92 % of control | dose: 25.0 mg/kg/injection, schedule: Q01DX009 (ip), vehicle: Klucel (hydroxypropylcellulose) (HPC) 89 % of control | dose: 50.0 mg/kg/injection, schedule: Q01DX009 (ip), vehicle: Klucel (hydroxypropylcellulose) (HPC) 89 % of control

Oc1[nH]c(N=C2N=c3ccccc3=N2)c2ccccc12
inactive: [3] 118 % of control | [4] 103 % of control | [5] 104 % of control

O=C(Cc1ccc([N+](=O)[O-])cc1)ON1C(=O)CCC1=O
inactive: [1] 117 % of control | [2] 114 % of control

CC(=NC1CCCCC1)Nc1ccc(NC(=O)c2ccc(C(=O)Nc3ccc(NC(C)=NC4CCCCC4)cc3)cc2)cc1
inactive: dose: 25.0 mg/kg/injection, schedule: Q01DX005 (ip), vehicle: Klucel (hydroxypropylcellulose) (HPC) 98 % of control | dose: 50.0 mg/kg/injection, schedule: Q01DX005 (ip), vehicle: Klucel (hydroxypropylcellulose) (HPC) 104 % of control | dose: 100.0 mg/kg/injection, schedule: Q01DX005 (ip), vehicle: Klucel (hydroxypropylcellulose) (HPC) 98 % of control | dose: 200.0 mg/kg/injection, schedule: Q01DX005 (ip), vehicle: Klucel (hydroxypropylcellulose) (HPC) 102 % of control

Oc1ccc(O)c(/C=N/NC(=S)NC2CC3CC2C2C=CCC32)c1 (stereo not drawn)
inactive: dose: 12.5 mg/kg/injection, schedule: Q01DX009 (ip), vehicle: olive oil, sesame oil, peanut oil 90 % of control | dose: 25.0 mg/kg/injection, schedule: Q01DX009 (ip), vehicle: olive oil, sesame oil, peanut oil 102 % of control | dose: 50.0 mg/kg/injection, schedule: Q01DX009 (ip), vehicle: olive oil, sesame oil, peanut oil 102 % of control | dose: 100.0 mg/kg/injection, schedule: Q01DX009 (ip), vehicle: olive oil, sesame oil, peanut oil 98 % of control | dose: 200.0 mg/kg/injection, schedule: Q01DX009 (ip), vehicle: olive oil, sesame oil, peanut oil 105 % of control

CCc1cccc(C)c1NC(=O)C(=O)C(C#N)c1ccc(CC#N)cc1 (stereo not drawn)
inactive: [1] 101 % of control | [2] 100 % of control
